Results on 1 compound are retold here after patent US5939578A, “Vasomolol: an ultra short-acting and vasodilatory vanilloid type β - adrenoceptor antagonist” (Lin; Tong-Ho, priority 1996, dated 1999).

Some results are limits rather than exact numbers.

The test system of experiment [1] is isolated rat thoracic aorta. Description: Inhibition of phenylephrine and high K+ induced contractions of isolated rat aorta (vasodilatation effect). The protocol:
Male rats weighing 200-250 g were sacrificed by a blow on the head and the thoracic aorta was removed and cleaned of all loosely adhering tissue. The thoracic aorta was cut from an area close to the aortic arch, immediately placed in a physiological solution, and trimmed to 2-4 mm in length as described in Gen. Pharmacol. 24, 1425, 1993 (by inventor group) The rings were then mounted with a tension of 1.0 g between parallel hooks in a 10 ml organ bath containing a physiological solution(mM):NaCl 112; KCl5.0; NaHCO3 25; KH2 PO4 1.0; CaCl2 1.25; MgSO4 1.2; and glucose 11.5]. The bath was maintained at 37° C. and aerated with a mixture of 95% O2 and 5% CO2. The tension of the aortic rings were recorded isometrically by means of a force displacement transducer (UGO, Model 7004, Italy) connected to an amplifier (COULBOURN, Model S72-25, U.S.A.). Before the start of the experiments, all preparations were allowed to equilibrate for 1.0 hr in the physiologic solution.
Effects of vasomolol on (A) phenylephrine(10^-5 M) and (B) high K^+ (75 mM) induced contraction in rat thoracic aorta.

For experiment [2], the target named is T1, β1-adrenoceptor (left atrium) (Cavia porcellus, UniProt H0W3H1).
T1 construct: Spontaneously-beating right atria were removed from the hearts and mounted in a 10 ml organ bath; from tissue; host or cells: isolated guinea-pig (Hartley) right and left atria
T1 sequence (H0W3H1 1-470): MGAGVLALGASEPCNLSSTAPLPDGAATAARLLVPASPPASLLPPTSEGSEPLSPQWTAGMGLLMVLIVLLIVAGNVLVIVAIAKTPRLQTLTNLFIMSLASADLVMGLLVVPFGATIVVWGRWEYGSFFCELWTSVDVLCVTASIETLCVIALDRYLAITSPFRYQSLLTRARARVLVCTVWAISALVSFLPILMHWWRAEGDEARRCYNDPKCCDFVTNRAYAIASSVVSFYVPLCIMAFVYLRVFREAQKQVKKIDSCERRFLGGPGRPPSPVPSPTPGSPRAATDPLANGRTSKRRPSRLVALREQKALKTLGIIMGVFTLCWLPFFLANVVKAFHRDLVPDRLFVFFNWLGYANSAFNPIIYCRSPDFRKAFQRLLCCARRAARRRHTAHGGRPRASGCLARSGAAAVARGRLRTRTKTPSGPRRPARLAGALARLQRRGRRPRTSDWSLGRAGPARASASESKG
The experiment is described as follows: β-adrenoceptor antagonism in isolated electrically driven left atria (isoproterenol inotropic response). Further details: species or system guinea-pig. The protocol:
In the isolated left atria, quiescent left atria were dissected free of connective tissue and mounted in organ chambers under a resting tension of 0.5 g. […] Cumulative concentration-response curves to the positive inotropic effects of (-) isoproterenol were obtained in the absence and presence of various concentrations of a test compound. An incubation time of 30 min was allowed for the test compound. Data were calculated as a percentage of the increase in force induced by (-) isoproterenol.
The pA2 values and slope values were calculated from individual Schild plots by regression analysis. The β1 /β2 -selectivity ratio was obtained from the antilogarithm of the difference between the mean pA2 values obtained from right atrium and trachea.
Mean cumulative concentration-response curves are shown for the positive chronotropic responses to (-) isoproterenol in spontaneously-beating guinea-pig right atria, positive inotropic responses to (-) isoproterenol in electrically driven guinea-pig left atria, and relaxant effects to (-) isoproterenol in guinea-pig spontaneous tone tracheal strips in the absence (.smallcircle.) or presence of 0.01 (.circle-solid.), 0.1, 1 (.tangle-soliddn.) or 10 (.diamond.) μM of vasomolol.

A further experiment deals with β-adrenergic receptor. The experiment is described as follows: β-blockade and duration of action: inhibition of (-)isoproterenol-induced tachycardia during and after infusion. The format is in vivo, pentobarbital-anesthetized rats. The procedure: Vasomolol (100 μg/kg/min) was infused consecutively into a femoral vein in pentobarbital-anesthetized rats. Each perfusion was maintained for 60 min. Before and during the infusion of vasomolol and esmolol, at 10-min intervals, bolus i.v. injections of (-) isoproterenol (0.5. μg/kg) were administered to assess the level of β-blockade. (-) lsoproterenol injections were also continued for 60 min. after termination of the highest dose of vasomolol and esmolol to assess the duration of β-blockade reported in J. Pharm. Exp. Ther. 237, 912, 1986 (by Quon, C. Y. et al.). The percentage of inhibition of the (-)isoproterenol-induced tachycardia parameter of β-blockade--was calculated during and after infusions of vasomolol.
isoproterenol (0.5 μg/kg)
vasomolol (0.5, 1.0, 3.0 mg/kg)

For the compound `CCOC(=O)c1ccc(OCC(O)CNC(C)(C)C)c(OC)c1` (stereo not shown) [Vasomolol], the “inhibition of high K+ induced contraction” value in experiment [1] (K+ 75 mM, vasomolol printed 10^6 -10^5 M) is listed as “significantly inhibited”. For the same compound, the “relaxation sensitivity, high K+ versus phenylephrine” value in experiment [1] (in words) is “more sensitive in high K^+ than in phenylephrine-contracted aorta preparations”. Moreover, the “inhibition of phenylephrine-induced contraction” value in experiment [1] (phenylephrine printed 10^5 M, vasomolol printed 10^6 -10^5 M) is “significantly inhibited”. Also, the “antagonism of isoproterenol-induced positive inotropic responses” value in experiment [2] (electrically driven left atrial strips) was “produced dose-dependent rightward shifts of the cumulative concentration-response curves to isoproterenol”. Further, the “relative β-adrenoceptor blocking potency” value in experiment [2] (guinea-pig atria, in words) is “more potent than atenolol, slightly more potent than metoprolol, and was less potent than propranolol”. For the same compound, the “pA2 value, β1, left atrium” value in experiment [2] (mean ± SEM, six to eight experiments, 30 min) came out at 7.44 ± 0.03. Moreover, in experiment [2] (regression of Schild plot), the “Schild slope, left atrium” value came out at 0.89 ± 0.02. Moreover, the “onset of β-blockade to steady-state level” value in the experiment on β-adrenergic receptor (after initiating each infusion rate, isoproterenol 0.5 μg/kg) is not above 10 min. In addition, in the experiment with β-adrenergic receptor (after termination of infusion, mean±S.E.M.), the “time required for 50% recovery” value is 9.5 ± 1.0 min. Besides, in the experiment on β-adrenergic receptor (in words), the “disappearance of β-blockade after termination of infusion” value is on record as “disappeared rapidly after the termination of infusion”.
